# Source: ChEMBL document CHEMBL1143882, “Selective cell adhesion inhibitors: Barbituric acid based alpha4beta7--MAdCAM inhibitors” (Bioorg Med Chem Lett, 2008)
# Assays:
# [1] = biological target: T1, Integrin alpha-4/beta-7 (Homo sapiens, UniProt P13612+P26010); assay: Inhibition of human integrin alpha-4-beta-7-MAdCAM interaction in human RPMI 8866 cells by whole-cell adhesion assay; type: cell-based
# T1 sequence (P13612 whole entry): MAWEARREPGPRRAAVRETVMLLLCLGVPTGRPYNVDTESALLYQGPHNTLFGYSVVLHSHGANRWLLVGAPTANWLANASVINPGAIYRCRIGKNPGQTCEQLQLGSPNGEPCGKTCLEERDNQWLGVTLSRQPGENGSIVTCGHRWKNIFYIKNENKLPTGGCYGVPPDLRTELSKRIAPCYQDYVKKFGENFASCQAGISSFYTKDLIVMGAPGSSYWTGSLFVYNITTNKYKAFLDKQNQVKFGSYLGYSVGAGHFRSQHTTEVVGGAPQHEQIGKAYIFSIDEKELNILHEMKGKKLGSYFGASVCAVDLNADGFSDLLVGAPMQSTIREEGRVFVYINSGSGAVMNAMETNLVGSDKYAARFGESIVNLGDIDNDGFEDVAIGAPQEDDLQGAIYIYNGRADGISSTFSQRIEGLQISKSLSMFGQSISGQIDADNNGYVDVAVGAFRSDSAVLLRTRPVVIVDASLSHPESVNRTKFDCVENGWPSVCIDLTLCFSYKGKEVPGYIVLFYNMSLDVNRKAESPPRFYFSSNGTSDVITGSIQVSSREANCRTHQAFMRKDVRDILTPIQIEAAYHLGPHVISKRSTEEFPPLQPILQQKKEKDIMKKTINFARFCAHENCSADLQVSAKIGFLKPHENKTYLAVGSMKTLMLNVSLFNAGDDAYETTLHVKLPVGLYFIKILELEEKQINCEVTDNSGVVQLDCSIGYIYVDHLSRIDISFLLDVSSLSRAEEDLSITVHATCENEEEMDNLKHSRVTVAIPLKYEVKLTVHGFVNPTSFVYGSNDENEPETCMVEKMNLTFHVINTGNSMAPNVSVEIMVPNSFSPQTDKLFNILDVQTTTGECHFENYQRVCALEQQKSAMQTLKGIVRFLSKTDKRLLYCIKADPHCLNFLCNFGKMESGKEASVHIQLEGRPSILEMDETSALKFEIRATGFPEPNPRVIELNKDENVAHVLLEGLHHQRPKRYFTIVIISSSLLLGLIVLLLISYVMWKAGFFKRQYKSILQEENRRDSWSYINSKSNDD
# T1 sequence (P26010 whole entry): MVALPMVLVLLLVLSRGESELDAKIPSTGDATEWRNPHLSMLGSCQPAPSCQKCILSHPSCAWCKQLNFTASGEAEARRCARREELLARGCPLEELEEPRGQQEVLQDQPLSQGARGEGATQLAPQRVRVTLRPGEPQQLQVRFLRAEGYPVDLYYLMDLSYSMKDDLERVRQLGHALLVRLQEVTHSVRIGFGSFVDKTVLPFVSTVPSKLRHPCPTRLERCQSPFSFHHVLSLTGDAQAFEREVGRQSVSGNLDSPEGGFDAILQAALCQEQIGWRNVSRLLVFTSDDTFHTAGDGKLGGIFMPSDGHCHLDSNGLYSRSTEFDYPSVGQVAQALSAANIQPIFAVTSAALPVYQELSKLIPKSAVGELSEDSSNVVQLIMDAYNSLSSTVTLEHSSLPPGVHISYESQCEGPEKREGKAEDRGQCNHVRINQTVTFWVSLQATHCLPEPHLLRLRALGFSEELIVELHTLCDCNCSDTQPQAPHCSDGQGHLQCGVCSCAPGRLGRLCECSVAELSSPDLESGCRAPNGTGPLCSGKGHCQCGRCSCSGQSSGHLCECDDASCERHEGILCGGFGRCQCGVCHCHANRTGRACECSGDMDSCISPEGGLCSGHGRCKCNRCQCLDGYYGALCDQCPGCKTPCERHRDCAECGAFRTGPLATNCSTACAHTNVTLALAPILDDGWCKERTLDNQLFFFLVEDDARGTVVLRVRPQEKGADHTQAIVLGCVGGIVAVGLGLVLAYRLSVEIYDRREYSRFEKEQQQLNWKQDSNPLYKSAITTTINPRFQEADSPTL
# [2] = biological target: Integrin alpha-4/beta-1 (Homo sapiens, UniProt P05556+P13612); assay: Inhibition of integrin alpha-4-beta-1-VCAM interaction; type: protein-complex assay
# Sequence of Integrin alpha-4/beta-1 (P05556 whole entry, one chain of several): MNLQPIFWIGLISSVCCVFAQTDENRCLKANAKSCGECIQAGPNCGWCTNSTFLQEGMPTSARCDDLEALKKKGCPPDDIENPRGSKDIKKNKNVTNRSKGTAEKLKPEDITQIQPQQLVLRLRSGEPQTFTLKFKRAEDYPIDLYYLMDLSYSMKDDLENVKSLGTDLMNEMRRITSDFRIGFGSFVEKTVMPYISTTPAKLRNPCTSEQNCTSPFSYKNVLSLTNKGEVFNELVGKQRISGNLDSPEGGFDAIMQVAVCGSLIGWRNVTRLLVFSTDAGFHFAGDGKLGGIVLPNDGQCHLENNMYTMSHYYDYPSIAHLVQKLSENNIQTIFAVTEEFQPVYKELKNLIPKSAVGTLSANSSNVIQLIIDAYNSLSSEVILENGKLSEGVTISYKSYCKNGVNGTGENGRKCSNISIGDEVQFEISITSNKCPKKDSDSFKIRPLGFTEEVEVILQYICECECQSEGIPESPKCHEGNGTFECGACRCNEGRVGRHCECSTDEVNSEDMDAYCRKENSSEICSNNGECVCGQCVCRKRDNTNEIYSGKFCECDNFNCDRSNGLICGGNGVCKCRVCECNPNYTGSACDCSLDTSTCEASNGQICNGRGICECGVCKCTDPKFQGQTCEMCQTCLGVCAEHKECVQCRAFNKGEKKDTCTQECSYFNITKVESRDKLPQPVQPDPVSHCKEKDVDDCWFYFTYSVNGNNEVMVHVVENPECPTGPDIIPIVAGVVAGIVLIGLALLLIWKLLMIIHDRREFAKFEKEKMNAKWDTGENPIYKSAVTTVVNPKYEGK
# [3] = biological target: Integrin alpha-5/beta-1 (Homo sapiens, UniProt P05556+P08648); assay: Inhibition of integrin alpha-5-beta-1-fibronectin interaction; type: protein-complex assay
# Sequence of Integrin alpha-5/beta-1 (P05556 21-798 limits assumed): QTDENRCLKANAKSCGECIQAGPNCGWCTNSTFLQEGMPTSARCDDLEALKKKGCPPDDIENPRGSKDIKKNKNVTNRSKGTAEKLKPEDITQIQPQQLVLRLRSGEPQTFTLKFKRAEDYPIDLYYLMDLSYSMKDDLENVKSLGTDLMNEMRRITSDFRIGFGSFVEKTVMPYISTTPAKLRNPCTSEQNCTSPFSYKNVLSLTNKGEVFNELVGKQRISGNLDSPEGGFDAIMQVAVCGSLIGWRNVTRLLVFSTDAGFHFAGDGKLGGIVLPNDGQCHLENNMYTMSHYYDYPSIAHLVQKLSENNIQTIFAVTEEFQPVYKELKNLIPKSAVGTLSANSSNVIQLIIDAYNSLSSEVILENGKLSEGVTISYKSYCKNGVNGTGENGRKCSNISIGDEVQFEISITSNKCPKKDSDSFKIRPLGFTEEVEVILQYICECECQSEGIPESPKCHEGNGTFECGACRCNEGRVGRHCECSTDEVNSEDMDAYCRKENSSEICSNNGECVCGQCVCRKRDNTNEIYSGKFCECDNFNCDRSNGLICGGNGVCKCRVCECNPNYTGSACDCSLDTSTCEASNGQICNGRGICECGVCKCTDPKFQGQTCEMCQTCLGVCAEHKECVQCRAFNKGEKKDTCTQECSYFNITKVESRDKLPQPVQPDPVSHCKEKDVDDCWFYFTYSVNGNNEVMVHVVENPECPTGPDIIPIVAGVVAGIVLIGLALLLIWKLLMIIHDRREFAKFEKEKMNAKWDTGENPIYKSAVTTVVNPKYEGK
# Sequence of Integrin alpha-5/beta-1 (P08648 42-894 limits assumed): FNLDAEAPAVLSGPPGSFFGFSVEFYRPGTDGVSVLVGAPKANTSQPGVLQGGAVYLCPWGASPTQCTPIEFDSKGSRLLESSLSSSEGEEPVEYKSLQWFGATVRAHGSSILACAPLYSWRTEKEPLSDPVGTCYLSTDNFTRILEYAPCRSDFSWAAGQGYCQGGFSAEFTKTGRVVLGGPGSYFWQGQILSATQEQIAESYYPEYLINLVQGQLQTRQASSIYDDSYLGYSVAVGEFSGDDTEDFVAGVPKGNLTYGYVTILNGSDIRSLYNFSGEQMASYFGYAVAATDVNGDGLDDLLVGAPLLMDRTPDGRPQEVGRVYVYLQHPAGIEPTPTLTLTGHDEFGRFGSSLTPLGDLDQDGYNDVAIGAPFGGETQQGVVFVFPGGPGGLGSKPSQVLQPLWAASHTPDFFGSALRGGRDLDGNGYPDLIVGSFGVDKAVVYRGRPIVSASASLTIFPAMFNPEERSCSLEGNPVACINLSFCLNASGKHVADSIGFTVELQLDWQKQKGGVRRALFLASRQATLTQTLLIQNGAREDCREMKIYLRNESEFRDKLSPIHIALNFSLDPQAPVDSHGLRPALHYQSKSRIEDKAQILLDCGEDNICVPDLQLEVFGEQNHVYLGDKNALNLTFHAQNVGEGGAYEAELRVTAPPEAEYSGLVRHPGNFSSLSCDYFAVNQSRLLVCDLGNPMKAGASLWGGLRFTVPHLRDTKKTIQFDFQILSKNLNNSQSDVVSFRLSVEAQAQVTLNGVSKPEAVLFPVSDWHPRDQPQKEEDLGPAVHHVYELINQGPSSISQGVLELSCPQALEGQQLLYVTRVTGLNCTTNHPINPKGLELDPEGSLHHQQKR
# Sequence of Integrin alpha-5/beta-1 (P08648 895-1049 limits assumed): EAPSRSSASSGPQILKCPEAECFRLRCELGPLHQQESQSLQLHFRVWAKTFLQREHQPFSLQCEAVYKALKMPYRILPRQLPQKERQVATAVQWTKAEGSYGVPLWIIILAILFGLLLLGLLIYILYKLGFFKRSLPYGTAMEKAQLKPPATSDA
# [4] = Oral bioavailability in mouse; type: ADME, organism-based; details: in vivo
# [5] = Half life in mouse; type: ADME, organism-based; details: in vivo
# [6] = Clearance in mouse; type: ADME, organism-based; details: in vivo
# [7] = Volume of distribution in mouse; type: ADME, organism-based; details: in vivo
# [8] = species: Mus musculus; assay: AUC in mouse; type: ADME, organism-based, Plasma; details: in vivo
Compound,IC50 [1],also measured
O=C1NC(=O)N(c2ccc(Cl)cc2)C(=O)/C1=C\c1ccccc1,1000 nM,–
O=C1NC(=O)N(c2ccccc2)C(=O)/C1=C\c1ccco1,1300 nM,IC50 [2]: > 20000 nM; IC50 [3]: > 20000 nM
CN1C(=O)/C(=C/c2c[nH]c3ccccc23)C(=O)N(c2cccc3ccccc23)C1=O,5500 nM,–
O=C1NC(=O)N(c2ccccc2)C(=O)/C1=C\c1cc2ccccc2[nH]1,10000 nM,–
Cn1cc(/C=C2/C(=O)NC(=O)N(c3ccccc3)C2=O)c2ccccc21,4100 nM,–
O=C1NC(=O)N(c2ccccc2-c2ccccc2)C(=O)/C1=C\c1c[nH]c2ccccc12,260 nM,IC50 [2]: > 20000 nM; IC50 [3]: > 20000 nM
O=C1NC(=O)N(c2ccccc2)C(=O)/C1=C\c1c[nH]c2ccccc12,900 nM,–
CC(C)(C)N1C(=O)NC(=O)/C(=C/c2c[nH]c3ccccc23)C1=O,> 20000 nM,–
O=C1NC(=O)N(c2cc(Cl)cc(Cl)c2)C(=O)/C1=C\c1ccccc1,1600 nM,–
Cn1cc(/C=C2/C(=O)NC(=O)N(c3cccc4ccccc34)C2=O)c2ccccc21,180 nM,–
O=C(/C=C1/C(=O)NC(=O)N(c2ccccc2)C1=O)/C=C/c1ccccc1,8600 nM,–
O=C1NC(=O)N(c2ccccc2)C(=O)/C1=C\c1ccc(C(F)(F)F)cc1,1300 nM,–
O=C1NC(=O)N(c2cccc3ccccc23)C(=O)/C1=C\c1c[nH]c2ccccc12,60 nM,IC50 [2]: > 20000 nM; IC50 [3]: > 20000 nM; bioavailability [4]: 62%; half-life [5]: 4.1 h; clearance [6]: 71 mL/min/kg; Vd [7]: 24.8 L/kg; AUC [8]: 170 mg·min/mL
O=C1NC(=O)N(c2ccccc2)C(=O)/C1=C\c1ccccc1,2200 nM,–
